Measured values: patent US7173063B1, “Topoisomerase poisons for the treatment of proliferative disorders” (Fred Hutchinson Cancer Research Center, priority 2000, dated 2007)
Like-named read-outs stand apart in the source and are kept apart here.

Test system: DSB repair defective rad50 and rad52 strains of Saccharomyces cerevisiae
Assay type: cell-based
Conditions: for toxicity in wild-type strains: highest concentration used
Excerpt: The strains are derived from the A364a genetic background, with the exception of BY4705, which is derived from the S288C background. Gene disruptions were generated by PCR fragment directed replacement (Baudin, et al., Nucleic Acids Research 21: 3329–30 (1993), Guldener, et al., Nucleic Acids Research 24: 2519–24 (1996)). Yeast overexpressing topoisomerase II was constructed by a PCR fragment directed promoter replacement of the topoisomerase II promoter with the yeast GPD promoter flanked upstream by the URA3 marker. All strains (except BY4705) bear the pleitropic drug sensitizing mutations erg6, pdr1, and pdr3 (Balzi, et al., Journal of Bioenergetics & Biomembranes 27: 71–6 (1995), Delaveau, et al, Molecular & General Genetics 244: 501–11 (1994), Gaber, et al., Molecular & Cellular Biology 9: 3447–56 (1989), Saunders, et al., Canadian Journal of Genetics & Cytology, 24: 493–503 (1982). Subik, et al, Current Genetics 10: 665–70 (1986)). The haploid yeast strain BY4705 (Brachmann, et al., Yeast 14: 115–32 (1998)) was used in the experiments described in FIG. 5. Plasmids expressing yeast or human topoisomerase I genes under the GAL promoter (Knab, et al., Journal of Biological Chemistry 268: 22322–30 (1993). Knab, et al., Journal of Biological Chemistry 270: 6141–8 (1995)) were transformed into BY4705 using standard procedures.
Yeast toxicity assays were performed essentially as follows: Exponentially growing cultures of the appropriate strains were diluted in synthetic complete media to a concentration of 7.4×10^4 cells/mL, and aliquots (135 μL) were transferred to each well of clear flat-bottomed 96 well plates. Compounds were added in duplicate or triplicate as 15 μL of the appropriate dilution in 5% DMSO. A 15 μL portion of 5% DMSO was added to control wells. […] Cell growth (OD660) in treated wells was plotted as a percentage of the growth in at least four averaged solvent control wells for the same strain. Camptothecin sodium salt (camptothecin Na) was the agent used in all yeast assays as standard.

[1] = relative growth (OD660) vs solvent control

CC(=O)[C@]1(O)Cc2c(O)c3c(c(O)c2[C@@H](O[C@H]2C[C@H](N)[C@H](O)[C@H](C)O2)C1)C(=O)c1ccccc1C3=O [idarubicin, reference compound]
profile of selective toxicity: toxic to rad50 and rad52 strains, not toxic in rad14 or rad18 strains: Agents with this profile include

O=c1c(Cl)c(Cl)cnn1CCCl [compound IIa]
toxicity in wild-type strains: neither compounds Ia or IIa produce toxicity
profile of selective toxicity: toxic to rad50 and rad52 strains, not toxic in rad14 or rad18 strains [1]: fit the profile for selective toxicity

O=C(CCl)Nc1ccc(C(=O)N/N=C/c2ccc(Cl)cc2)cc1 [compound Ia]
influence of sensitizing mutations erg6 pdr1 and pdr3 on yeast sensitivity: strongly influenced
toxicity in wild-type strains: neither compounds Ia or IIa produce toxicity
profile of selective toxicity: toxic to rad50 and rad52 strains, not toxic in rad14 or rad18 strains [1]: fit the profile for selective toxicity
